Measured values reported in patent publication US20260216239A1 (Arizona Board of Regents on Behalf of the University of …, priority 2020, published 2026).

Key:
[1] = tested on: Bothrops moojeni venom; assay: Thrombelastography in human plasma of venom procoagulant activity after isolated exposure of venom to compounds; type: biochemical; conditions: venom exposed to 100 μM carboplatin, 1 mM CORM-2 or both; venom 2 μg/ml in plasma
Method: (§1) Thrombelastographic analyses. The volumes of subsequently described plasmatic and other additives summed to a final volume of 360 μl. Samples were composed of 320 μl of plasma; 16.4 μl of PBS, 20 μl of 200 mM CaCl2), and 3.6 μl of PBS or venom mixture, which were pipetted into a disposable cup in a Thrombelastograph® hemostasis system (Model 5000, Haemonetics Inc., Braintree, MA, USA) at 37° C., and then rapidly mixed by moving the cup up against and then away from the plastic pin five times. The following viscoelastic parameters described previously (see, Nielsen V G (2019) J Thromb Thrombolysis 47, 73-79; Gessner G, et al., (2017) Eur J Pharmacol 815, 33-41; Nielsen V G, Wagner M T, Frank N (2020) Int J Mol Sci 21, 2082; Lazić D, Arsenijević A, Puchta R, Bugarčić ŽD, Rilak A (2016) Dalton Trans 45, 4633; Hanif M, et al., (2017) ChemPlusChem 82, 841-847) were measured: time to maximum rate of thrombus generation (TMRTG): this is the time interval (minutes) observed prior to maximum speed of clot growth; maximum rate of thrombus generation (MRTG): this is the maximum velocity of clot growth observed (dynes/cm^2/second); and total thrombus generation (TTG, dynes/cm^2), the final viscoelastic resistance observed after clot formation.
(§2) B. moojeni. This venom was exposed to 0 or 1 mM CORM-2 in the presence of 0 or 100 μM RuCl3 in PBS for at least 5 minutes at room temperature prior to placement into plasma followed immediately with commencement of thrombelastographic analysis. The final concentration of this venom in plasma was 2 μg/ml.
(§3) Given the aforementioned, the experimental conditions utilized were: 1) V condition—venom in PBS; 2) Ru(II) condition—venom exposed to CORM-2; 3) Ru(III) condition—venom exposed to RuCl3; 4) Ru(II+III) condition—venom exposed to CORM-2 and RuCl3 simultaneously. After the 5 minute period at room temperature, 3.6 μl of one of these solutions was added to the plasma sample in the plastic thrombelastograph cup.
(§4) The volumes of subsequently described plasmatic and other additives summed to a final volume of 360 μl. Samples were composed of 320 μl of plasma; 16.4 μl of PBS, 20 μl of 200 mM CaCl2), and 3.6 μl of PBS or venom mixture, which were pipetted into a disposable cup in a Thrombelastograph® hemostasis system (Model 5000, Haemonetics Inc., Braintree, MA, USA) at 37° C., and then rapidly mixed by moving the cup up against and then away from the plastic pin five times. The following viscoelastic parameters described previously (see, Nielsen, V. G. J Thromb Thrombolysis 2019, 47, 73-79; Gessner, G.; et al., Eur J Pharmacol 2017, 815, 33-41; Nielsen, V. G.; Wagner, M. T.; Frank, N. Int J Mol Sci 2020, 21, 2082; Lazid, D.; et al., Dalton Trans 2016, 45, 4633; Hanif, M.; et al., ChemPlusChem 2017, 82, 841-847) were measured: time to maximum rate of thrombus generation (TMRTG): this is the time interval (minutes) observed prior to maximum speed of clot growth; maximum rate of thrombus generation (MRTG): this is the maximum velocity of clot growth observed (dynes/cm2/second); and total thrombus generation (TTG, dynes/cm2), the final viscoelastic resistance observed after clot formation.
as §2, with “CORM-2 or CORM-3” for “CORM-2”, “analysis. This venom was also exposed to 0 or 1 mM CORM-2 in the presence of 0 or 100 μM carboplatin in another series of experiments.” for “analysis.”
Given the aforementioned, the experimental conditions utilized were: 1) V condition—venom in PBS; 2) Ru(II) condition—venom exposed to CORM-2 or CORM-3; 3) Ru(III) condition—venom exposed to RuCl3; 4) Ru(II+III) condition—venom exposed to CORM-2 or CORM-3 and RuCl3 simultaneously; 5) Pt(II) condition—venom exposed to carboplatin; and 6) Pt+Ru condition—venom exposed to carboplatin and CORM-2.

[2] = tested on: Calloselasma rhodostoma venom; assay: as above; type: biochemical; conditions: venom exposed to 100 μM carboplatin, 100 μM CORM-2 or both; venom 5 μg/ml in plasma
Method: as §1
C. rhodostoma. […] The final concentration of this venom in plasma was 5 μg/ml.
as §3, §4
C. rhodostoma. […] This venom was also exposed to 0 or 100 μM CORM-2 in the presence of 0 or 100 μM carboplatin in another series of experiments. The final concentration of this venom in plasma was 5 μg/ml.

In the case of N.N.O=C([O-])C1(C(=O)[O-])CCC1.[Pt+2] [carboplatin, reference compound], the coagulation kinetic parameters [1] is reported as “no significant change in any of the coagulation kinetic parameters” and the “procoagulant activity of venom” value [2] is reported as “no significant effect”.
